ChEMBL document CHEMBL1151271, “Phrygiasterol, a cytotoxic cyclopropane-containing polyhydroxysteroid, and related compounds from the pacific starfish Hippasteria phrygiana” (J Nat Prod, 2005)
Converted amounts (≈) assume the structure as drawn.

Tests used:
Format in all cases: functional, cell-based
Ehrlich = test: Induction of apoptosis in mouse EAC assessed as early apoptotic cell by Hoechst and PI staining
Splenocyte = test: Inhibition of calcium influx in mouse splenocytes
[1] = Cytotoxicity against mouse EAC; conditions: Ehrlich

EC50 (Ehrlich) [mg/L] | EC50 (Splenocyte) [mg/L] | SMILES | IC50 [1] [mg/L]
70 (≈ 117 µM) | 20 (≈ 33.4 µM) | CO[C@@H]1[C@@H](O)[C@H](O[C@@H](CC[C@@H](C)[C@H]2C[C@H](O)[C@@H]3[C@]2(C)CC[C@@H]2[C@@]4(C)CC[C@H](O)C[C@@H]4[C@@H](O)C[C@]23O)C(C)C)OC[C@H]1O [BOREALOSIDE C] | –
70 | 20 | CO[C@@H]1[C@@H](O)[C@H](O[C@@H](CC[C@@H](C)[C@H]2C[C@H](O)[C@@H]3[C@]2(C)CC[C@@H]2[C@@]4(C)CC[C@H](O)C[C@@H]4[C@@H](O)C[C@]23O)C(C)C)OC[C@H]1OS(=O)(=O)[O-].[Na+] [PHRYGIOSIDE B] | –
– | – | C[C@H](CC[C@@H]1C[C@H]1CO)[C@H]1[C@@H](O)[C@H](O)[C@@H]2[C@]1(C)CC[C@@H]1[C@@]3(C)CC[C@H](O)C[C@@H]3[C@@H](O)C[C@]12O [PHRYGIASTEROL] | 50 (≈ 107 µM)
